According to patent US12122774B2, “Compounds as MYT1 inhibitors” (WIGEN BIOMEDICINE TECHNOLOGY (SHANGHAI) CO., LTD., priority 2022, dated 2024):
Converted amounts (≈) assume the structure as drawn.

How the values were obtained:
MIA PaCa-2 cells = assay: In vitro anti-proliferative activity against MIA PaCa-2 cells (compound alone); type: cell-based; conditions: intracellular ATP content
Procedure: MIA PaCa-2 cells were seeded on a 384-well plate at 3000 cells/well. After overnight adherence culture, DMSO or the compounds serially diluted 1:5 from 10 µM were added. The viability was assessed 72 h after dosing by measuring the intracellular ATP content. The inhibition percentage of viable cells by the compounds was calculated by comparing with the DMSO group, and the IC50 value was calculated.

[1] = In vivo pharmacokinetic experiment; parameters: species or system CD-1 female mice; conditions: mice, oral administration 10 mg/kg
Procedure: CD-1 female mice aged 7 to 10 weeks were intravenously administered and orally administered at a dose of 2 mg/kg and 10 mg/kg, respectively. The mice were fasted for at least 12 h before the administration and given food 4 h after the administration, and they were given ad libitum access to water during the experiment. On the day of the experiment, animals in the intravenous group were administered the corresponding compound by single injection via the tail vein at an administration volume of 10 mL/kg. Animals in the oral group were administered the corresponding compound by single intragastric injection at an administration volume of 10 mL/kg. The animals were weighed before administration, and the administration volume was calculated according to the body weight. The sample collection time was 0.083 h (injection group), 0.167 h, 0.5 h, 1 h, 2 h, 4 h, 8 h, and 24 h. About 200 μL of whole blood was collected through the submaxillary venous plexus at each time point and used to prepare plasma for concentration determination by high-performance liquid chromatography-tandem mass spectrometry (LC-MS/MS). All animals were euthanized with CO2 anesthesia after the PK samples were collected at the last time point. The plasma concentrations were processed using a non-compartmental model of Phoenix WinNonlin™ version 8.3 (Certara) pharmacokinetic software, and the pharmacokinetic parameters were calculated using a linear-log trapezoidal method.

[2] = In vitro solubility experiment; type: physicochemical; conditions: thermodynamic from solid
Procedure: (§1) Preparation of a standard curve: 10.01 mg of sample was weighed out and placed in a volumetric flask, and the volume was brought to 10 mL with acetonitrile/water (v/v, 9/1) to prepare 1.001 mg/mL of standard solution; the standard solution was then serially diluted to 0.5005 mg/mL, 0.1001 mg/mL, 0.05005 mg/mL, 0.01001 mg/mL, and 0.001001 mg/mL to generate the standard curve, and a linear equation was fitted by taking the peak area of the sample as a vertical axis and the concentration as a horizontal axis. Solubility and stability test: 15 mg of sample was added to 3 mL of vehicle (FaSSIF, FeSSIF, SGF, or water) to prepare a corresponding suspension at a target concentration of 5 mg/mL. The prepared suspension was stirred on a shaker (800 rpm) at 37° C. for 0.5 h, and the suspension was then filtered. The filtrate was diluted with a diluent to a corresponding multiple so that the peak height could not exceed the standard curve, and the solubility and purity were detected using HPLC.

[3] = In vitro stability experiment (HPLC purity of filtrate); type: physicochemical
Procedure: as §1

Recombinant MYT1 protein = target: T1, Recombinant MYT1 protein (Homo sapiens, UniProt Q99640); assay: In vitro assay for inhibiting MYT1 kinase activity (ADP-GLO); type: biochemical; conditions: 10 μM ATP, read-out: Inhibitory activity against recombinant protein MYT1 IC50
T1 sequence (Q99640 1-499): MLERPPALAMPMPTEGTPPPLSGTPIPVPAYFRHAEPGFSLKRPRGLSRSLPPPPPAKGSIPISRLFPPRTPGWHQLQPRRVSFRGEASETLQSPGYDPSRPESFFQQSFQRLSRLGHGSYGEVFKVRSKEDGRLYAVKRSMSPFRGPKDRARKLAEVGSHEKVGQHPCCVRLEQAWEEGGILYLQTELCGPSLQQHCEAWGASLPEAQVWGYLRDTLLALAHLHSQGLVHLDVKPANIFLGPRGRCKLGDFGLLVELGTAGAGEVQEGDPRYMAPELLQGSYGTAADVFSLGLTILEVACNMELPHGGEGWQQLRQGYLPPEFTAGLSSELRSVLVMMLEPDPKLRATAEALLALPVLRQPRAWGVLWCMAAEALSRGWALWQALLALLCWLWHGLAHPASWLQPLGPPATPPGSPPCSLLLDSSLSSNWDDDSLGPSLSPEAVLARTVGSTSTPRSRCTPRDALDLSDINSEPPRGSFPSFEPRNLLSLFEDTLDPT
Procedure: Recombinant MYT1 protein and the compounds were pre-incubated at room temperature for 15 min, and 10 μM ATP was then added to start the reaction. The mixture was incubated at room temperature for another 60 min, and the ADP-GLO reagent from Promega was then added. The resulting mixture was incubated in the dark for 40 min, a detection solution was then added, and the mixture was incubated for another 45-60 min. The chemiluminescence was determined using ENVISION. The inhibition rate and IC50 were calculated compared to the DMSO group.

[4] = FaSSIF, initial pH 6.52, 37° C.
[5] = FeSSIF, initial pH 4.98, 37° C.

Cc1cc2c(C(N)=O)c(N)n(-c3c(C)ccc(O)c3C)c2nc1C#N [Compound 12]
IC50 (MIA PaCa-2 cells; Homo sapiens, MIA PaCa-2, 72 h): > 10 µM

Cc1cc2c(C(N)=O)c(N)n(-c3c(C)ccc(O)c3C)c2nc1C [RP-6306, reference compound]
IC50 (MIA PaCa-2 cells; Homo sapiens, MIA PaCa-2, 72 h): 9.22 µM
half-life ([1]; female, CD-1, mouse, plasma): 1.58 h
F % [1]: 54.7%
solubility at 0.5 h ([2]; simulated gastric fluid, SGF, initial pH 1.2, 37° C.): 3860 µg/mL (≈ 11900 µM)
solubility at 0.5 h [2, 4]: 49 µg/mL (≈ 151 µM)
solubility at 0.5 h [2, 5]: 182 µg/mL (≈ 561 µM)
solubility at 0.5 h ([2]; Water, initial pH 7.7, 37° C.): 13 µg/mL (≈ 40.1 µM)
HPLC purity 0.5 h [3, 4]: 58.88 %, 220 nm
HPLC purity 0.5 h [3, 5]: 74.51 %, 220 nm
HPLC purity 0.5 h ([3]; SGF, initial pH 1.2, 37° C.): 98.18 %, 220 nm
HPLC purity 0.5 h ([3]; Water, initial pH 7.7, 37° C.): 40.92 %, 220 nm

Cc1cc2c(C(N)=O)c(N)n(-c3c(C)c(O)cc4ccccc34)c2nc1C [Compound 128]
IC50 (Recombinant MYT1 protein): 0.2 to 0.5 µM

Cc1cc2c(C(N)=O)c(N)n(-c3c(C)cc4cc[nH]c4c3C)c2nc1C [Compound 153]
IC50 (MIA PaCa-2 cells; Homo sapiens, MIA PaCa-2, 72 h): > 10 µM

Cc1cc2c(C(N)=O)c(N)n(-c3c(C)c(O)cc4c3CCC4)c2nc1C (atropisomer, axis not shown) [Compound 117]
IC50 (MIA PaCa-2 cells; 72 h): > 10 µM

Cc1cc2c(C(N)=O)c(N)n(-c3c(C)cc4c(c3C)NCC4)c2nc1C [Compound 151]
IC50 (MIA PaCa-2 cells; 72 h): > 10 µM
